Reference: patent US6815556B2, “Compounds having fungicidal activity and processes to make and use same” (Dow AgroSciences LLC, priority 2000, dated 2004)
Where two headings read alike, the source gives them in different places.

Legend:
[1] = test system: Phytophthora infestans; test: whole plant or invertebrate; type: in vivo; conditions: 24 h, read-out: PHYTIN percent control
[2] = test system: Plasmopara viticola; test: whole plant or invertebrate; type: in vivo; conditions: 24 h, read-out: PLASVI percent control
[3] = test system: Septoria tritici; test: Leaf Blotch of Wheat, 1-day protectant whole plant test; type: in vivo; conditions: Zymoseptoria tritici, 24 h, read-out: SEPTTR percent control
[4] = 100 ppm spray, wheat plants (variety Monon), one-day protectant test, vs untreated inoculated plants

Structure (SMILES)	pest or weed control at 100 ppm [1] [%]	pest or weed control at 100 ppm [2] [%]	pest or weed control at 100 ppm [3, 4] [%]	melting point [°C]	pest or weed control at 100 ppm [3] [%]
COC(C)[C@@H](CS(=O)(=O)C(C)c1ccc(C#N)cc1)NC(=O)Oc1ccc(C)cc1 (some centres unmarked) [Compound 40]	90 to 100	90 to 100			
CC(C)[C@@H](CS(=O)(=O)C(C)c1ccc(Br)cc1)NC(=O)OC(C)(C)C (some centres unmarked) [Compound 20]	90 to 100	50 to 89	20 to 49		
CC(C)OC(=O)N[C@H](CS(=O)(=O)C(C)c1ccc(C#N)cc1)C(C)C (some centres unmarked) [Compound 2]	90 to 100	90 to 100	< 20	110 to 120	
Cc1ccc(OC(=O)N[C@H](CS(=O)(=O)C(C)c2ccc(C#N)cc2)C(C)C)cc1C (some centres unmarked) [Compound 33]	90 to 100	90 to 100			
CC(C)OC(=O)N[C@H](CS(=O)(=O)C(C)c1ccc(C#N)s1)C(C)C (some centres unmarked) [Compound 9]	90 to 100	90 to 100			
CCSC(=O)N[C@H](CS(=O)(=O)C(C)c1ccc(C#N)cc1)C(C)C (some centres unmarked) [Compound 36]	50 to 89	50 to 89			
CC(C)OC(=O)N[C@H](CS(=O)(=O)C(C)c1ccc(C=O)cc1)C(C)C (some centres unmarked) [Compound 15]	90 to 100	90 to 100		50 to 60	
CC(C)OC(=O)N[C@H](CS(=O)(=O)C(C)c1cc2ccc(F)cc2o1)C(C)C (some centres unmarked) [Compound 25]	90 to 100	90 to 100			
CC[C@@H](CS(=O)(=O)C(C)c1ccc(C#N)cc1)NC(=O)Oc1ccc(F)cc1 (some centres unmarked) [Compound 42]	90 to 100	90 to 100		50 to 62	
CC(c1ccc(C#N)cc1)S(=O)(=O)C[C@H](CC1CCCCC1)NC(=O)OC(C)(C)C (some centres unmarked) [Compound 41]	50 to 89	90 to 100		58 to 65	
CCC(C)[C@@H](CS(=O)(=O)C(C)c1ccc(Br)cc1)NC(=O)OC(C)C (some centres unmarked) [Compound 39]	90 to 100	90 to 100			
CC(C)OC(=O)N[C@H](CS(=O)(=O)C(C)c1ccc2ccccc2c1)C(C)C (some centres unmarked) [Compound 16]	90 to 100	50 to 89			
CC(C)[C@@H](CS(=O)(=O)C(C)c1ccc(C#N)cc1)NC(=O)Oc1ccc(F)cc1 (some centres unmarked) [Compound 18]	90 to 100	90 to 100			50 to 89
CCC(c1ccc(Cl)cc1)S(=O)(=O)C[C@@H](NC(=O)OC(C)C)C(C)C (some centres unmarked) [Compound 23]	50 to 89	50 to 89	50 to 89		
CCOc1ccc(OC(=O)N[C@H](CS(=O)(=O)C(C)c2ccc(Br)cc2)C(C)C)cn1 (some centres unmarked) [Compound 32]	90 to 100	90 to 100			
CC(C)OC(=O)N[C@H](CS(=O)(=O)C(C)c1cccc(F)c1)C(C)C (some centres unmarked) [Compound 3]	90 to 100	50 to 89			
CC(C)[C@@H](CS(=O)(=O)C(C)c1ccc(C#N)cc1)NC(=O)OCC(Cl)(Cl)Cl (some centres unmarked) [Compound 27]	90 to 100	90 to 100	50 to 89		
CC(C)[C@@H](CS(=O)(=O)C(C)c1ccc(C#N)cc1)NC(=O)Oc1ccccc1Br (some centres unmarked) [Compound 34]	90 to 100	90 to 100			
CON=Cc1ccc(C(C)S(=O)(=O)C[C@@H](NC(=O)OC(C)C)C(C)C)cc1 (some centres unmarked) [Compound 12]	90 to 100	90 to 100			
CC(C)OC(=O)N[C@H](CS(=O)(=O)C(C)c1nc2ccc(Br)cc2s1)C(C)C (some centres unmarked) [Compound 10]	90 to 100	90 to 100			
Cc1cccc(OC(=O)N[C@H](CS(=O)(=O)C(C)c2ccc(C#N)cc2)C(C)C)c1 (some centres unmarked) [Compound 19]	90 to 100	90 to 100			
COC(=O)c1ccc(C(C)S(=O)(=O)C[C@@H](NC(=O)OC(C)C)C(C)C)cc1 (some centres unmarked) [Compound 14]	90 to 100	90 to 100		140 to 145	

Structure (SMILES)	pest or weed control at 100 ppm [1] [%]	pest or weed control at 100 ppm [2] [%]	pest or weed control at 100 ppm [3, 4] [%]	melting point [°C]	pest or weed control at 100 ppm [3] [%]
CC(C)OC(=O)N[C@H](CS(=O)(=O)C(C)c1ccc([N+](=O)[O-])cc1)C(C)C (some centres unmarked) [Compound 13]	90 to 100	90 to 100	< 20		
C#Cc1ccc(C(C)S(=O)(=O)C[C@@H](NC(=O)OC(C)C)C(C)C)cc1 (some centres unmarked) [Compound 11]	90 to 100	50 to 89	50 to 89	125 to 135	
CC(C)[C@@H](CS(=O)(=O)C(C)c1ccc(C#N)cc1)NC(=O)Nc1ccc(C(F)(F)F)cc1 (some centres unmarked) [Compound 37]	90 to 100	90 to 100			
C=CCC(c1ccc(C#N)cc1)S(=O)(=O)C[C@@H](NC(=O)Oc1ccc(C)cc1)C(C)C (some centres unmarked) [Compound 26]	90 to 100	90 to 100			
CC(C)OC(=O)N[C@H](CS(=O)(=O)C(C)c1ccc(Br)cc1)C(C)C (some centres unmarked) [Compound 1]	90 to 100	90 to 100	< 20	60 to 70	
CC(C)OC(=O)N[C@H](CS(=O)(=O)C(C)c1ccc(Br)c([N+](=O)[O-])c1)C(C)C (some centres unmarked) [Compound 24]	90 to 100	90 to 100			
CC(C)OC(=O)N[C@@H](C(C)C)C(C)S(=O)(=O)C(C)c1ccc(Br)cc1 (some centres unmarked) [Compound 44]	90 to 100	50 to 89			
CC(C)OC(=O)N[C@H](CS(=O)(=O)C(Cl)c1ccc(Cl)cc1)C(C)C (some centres unmarked) [Compound 22, isopropyl 1-({[chloro(4-chlorophenyl)methyl]sulfonyl}methyl)-2-methylpropylcarbamate]	90 to 100	90 to 100	< 20	140 to 143	
Cc1ccc(OC(=O)N[C@H](CS(=O)(=O)C(C)c2ccc(C#N)cc2)C(C)C)cc1 (some centres unmarked) [Compound 29]	90 to 100	90 to 100		65 to 74	50 to 89
CC(C)OC(=O)N[C@H](CS(=O)(=O)C(C)c1ccc(Cl)c(Cl)c1)C(C)C (some centres unmarked) [Compound 5]	90 to 100	50 to 89	< 20	75 to 85	
CC(C)[C@@H](CS(=O)(=O)C(C)c1ccc(C#N)cc1)NC(=O)Oc1ccc(Br)cc1 (some centres unmarked) [Compound 30]	90 to 100	90 to 100			
C#CCCOC(=O)N[C@H](CS(=O)(=O)C(C)c1ccc(Br)cc1)C(C)C (some centres unmarked) [Compound 21]	90 to 100	50 to 89	50 to 89		
CC(C)OC(=O)N[C@H](CS(=O)(=O)C(C)c1ccc(Br)nc1)C(C)C (some centres unmarked) [Compound 8]	50 to 89	50 to 89	< 20		
CC(C)OC(=S)N[C@H](CS(=O)(=O)C(C)c1ccc(C#N)cc1)C(C)C (some centres unmarked) [Compound 35]	90 to 100	90 to 100			
C=C(C)OC(=O)N[C@H](CS(=O)(=O)C(C)c1ccc(C#N)cc1)C(C)C (some centres unmarked) [Compound 28]	90 to 100	90 to 100			
CC(C)OC(=O)N[C@H](CS(=O)(=O)C(C)c1ccc(-c2ccccc2)cc1)C(C)C (some centres unmarked) [Compound 6]	90 to 100	90 to 100			
CC(C)[C@@H](CS(=O)(=O)C(C)c1ccc(Br)cc1)NC(=O)Oc1ccc2ccccc2c1 (some centres unmarked) [Compound 31]	90 to 100	90 to 100		129 to 135	
CC(C)OC(=O)N[C@H](CS(=O)(=O)C(C)c1ccc(OC(F)(F)F)cc1)C(C)C (some centres unmarked) [Compound 4]	90 to 100	90 to 100	< 20	50 to 60	
CC(C)[C@@H](CS(=O)(=O)C(C)c1ccc(Br)cc1)NC(=O)Oc1ccccc1 (some centres unmarked) [Compound 17]	90 to 100	90 to 100		55 to 65	20 to 49
CC[C@@H](CS(=O)(=O)C(C)c1ccc(C#N)cc1)NC(=O)Oc1ccc(C)cc1 (some centres unmarked) [Compound 38]	90 to 100	90 to 100		50 to 60	
COc1cccc(OC(=O)N[C@H](CS(=O)(=O)C(C)c2ccc(C#N)cc2)C(C)C)c1 (some centres unmarked) [Compound 43]	50 to 89	90 to 100		50 to 53	
